Test results published in US4740504A, “Antihyperlipidemic amine boranes” (United States Borax & Chemical Corp., priority 1987, dated 1988).
Like-named read-outs stand apart in the source and are kept apart here.

Legend:
acetyl CoA synthetase [1] = target: T1, acetyl CoA synthetase (Mus musculus, UniProt Q9QXG4); assay: Enzymatic studies in vitro: acetyl CoA synthetase; assay type: biochemical; details: at all concentrations tested
T1 construct: from tissue

[2] = system: phosphatidate phosphohydrolase; assay: Enzymatic studies in vitro: phosphatidate phosphohydrolase; assay type: biochemical; details: 200 μM
[3] = system: sn-glycerol-3 phosphate acyl transferase; assay: Enzymatic studies in vitro: sn-glycerol-3 phosphate acyl transferase; assay type: biochemical
fatty acid synthetase = target: T2, fatty acid synthetase (Mus musculus, UniProt P19096); assay: Enzymatic studies in vitro: fatty acid synthetase; assay type: biochemical
T2 construct: from tissue

male CF1 mice [4] = assay: Hypolipidemic activity in CF1 mice, intraperitoneal dosing (serum cholesterol and triglyceride); assay type: in vivo; details: Table III, 4 mg/kg/day i.p., N = 6
Cholesterol 7α hydrolase = target: T3, Cholesterol 7α hydrolase (Mus musculus, UniProt Q64505); assay: Enzymatic studies in vitro: cholesterol 7α hydrolase; assay type: biochemical
T3 construct: from tissue; host or cells: liver (inferred; the enzyme is liver-specific)

HMG CoA reductase [5] = assay: Enzymatic studies in vitro: cholesterol synthesis (HMG CoA reductase); assay type: biochemical; details: 200 μM
[6] = system: phosphatidate phosphohydrolase; assay: Enzyme activity after in vivo dosing: phosphatidate phosphohydrolase; details: 16 mg/kg/day
Toxicity (LD50) = details: in vivo
acetyl CoA synthetase [7] = target: T1, acetyl CoA synthetase; assay: Enzyme activity after in vivo dosing: acetyl CoA synthetase; details: 16 mg/kg/day
HMG CoA reductase [8] = target: T4, HMG CoA reductase (Mus musculus, UniProt Q01237); assay: Enzyme activity after in vivo dosing: HMG CoA reductase; details: maximal reduction at 4 mg/kg/day
T4 construct: from tissue
T4 sequence (Q01237 1-887): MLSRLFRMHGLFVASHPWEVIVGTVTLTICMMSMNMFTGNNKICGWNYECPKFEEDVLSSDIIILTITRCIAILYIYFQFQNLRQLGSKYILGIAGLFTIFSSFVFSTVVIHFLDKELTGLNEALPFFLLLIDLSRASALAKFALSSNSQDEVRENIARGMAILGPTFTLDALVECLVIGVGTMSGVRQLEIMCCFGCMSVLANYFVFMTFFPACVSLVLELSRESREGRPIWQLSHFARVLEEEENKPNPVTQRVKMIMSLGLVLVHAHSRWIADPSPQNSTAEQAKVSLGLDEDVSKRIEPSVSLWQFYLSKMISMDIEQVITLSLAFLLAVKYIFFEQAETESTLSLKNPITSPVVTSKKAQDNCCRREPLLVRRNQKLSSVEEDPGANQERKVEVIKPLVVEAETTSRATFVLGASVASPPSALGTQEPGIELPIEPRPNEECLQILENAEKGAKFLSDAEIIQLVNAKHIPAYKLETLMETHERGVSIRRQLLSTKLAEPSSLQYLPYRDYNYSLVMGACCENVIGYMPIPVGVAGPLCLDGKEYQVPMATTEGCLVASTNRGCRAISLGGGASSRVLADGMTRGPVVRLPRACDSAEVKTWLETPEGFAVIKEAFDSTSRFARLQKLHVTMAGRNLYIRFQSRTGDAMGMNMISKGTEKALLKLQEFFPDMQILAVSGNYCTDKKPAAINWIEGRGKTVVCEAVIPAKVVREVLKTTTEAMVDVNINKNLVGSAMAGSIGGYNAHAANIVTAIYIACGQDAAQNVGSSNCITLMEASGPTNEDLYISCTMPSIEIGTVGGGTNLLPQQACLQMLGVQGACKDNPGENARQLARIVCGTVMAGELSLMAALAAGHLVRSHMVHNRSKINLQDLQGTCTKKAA

[9] = target: T5, Cholesterol 7α hydroxylase (Mus musculus, UniProt Q64505); assay: Enzyme activity after in vivo dosing: cholesterol 7α hydroxylase; details: 16 mg/kg
T5 construct: from tissue; host or cells: liver (inferred; the enzyme is liver-specific)

Actyl CoA carboxylase = assay: Enzymatic studies in vitro: acetyl CoA carboxylase; assay type: biochemical
male CF1 mice [10] = assay: Hypolipidemic activity in CF1 mice, intraperitoneal dosing (serum cholesterol and triglyceride); assay type: in vivo; details: for response vs control in vivo at 20 mg/kg: Mus musculus, ip, Table I, 20 mg./kg./day i.p., male CF1 mice; for Serum Cholesterol Day 9 (X ± SD) / Serum Cholesterol Day 16 (X ± SD) / Serum Triglyceride Day 16 (X ± SD) / Serum Triglyceride Day 9 (X ± SD): Table III, CF1 mice, N = 6
Experimental: For determining hypolipidemic activity, the compounds were suspended in an aqueous 1% carboxymethylcellulose solution and tested at 5 or 20 mg./kg./day administered intraperitoneally to male CF1 mice (~25 g.). On days 9 and 16 blood was collected by tail vein bleeding and the serum separated by centrifugation for three minutes. Serum cholesterol levels were determined by a modified Liebermann-Burchard reaction. Serum triglyceride levels were also determined at 16 days using a Fisher-Hycel Triglyceride Test Kit.
The test was repeated at a dosage of 8 mg./kg./day.
N-n-Octadecyl-N,N-dimethylamine borane was suspended in an aqueous 1% carboxymethylcellulose solution, homogenized, and administered to CF1 male mice (~25 g.) intraperitoneally for 16 days or Sprague Dawley male rats (~350 g.) orally by an intubation needle for 14 days. On days 9 and 14 or 16, blood was obtained by tail vein bleeding and the serum separated by centrifugation for 3 minutes. The serum cholesterol levels were determined by a modification of the Liebermann-Burchard reaction. Serum was also collected on day 14 or 16 and the triglyceride content was determined by a Fisher-Hycel Triglyceride Test Kit.

[11] = CF1 male mice, 8 mg/kg/day I.P.

T1 sequence (Q9QXG4 whole entry): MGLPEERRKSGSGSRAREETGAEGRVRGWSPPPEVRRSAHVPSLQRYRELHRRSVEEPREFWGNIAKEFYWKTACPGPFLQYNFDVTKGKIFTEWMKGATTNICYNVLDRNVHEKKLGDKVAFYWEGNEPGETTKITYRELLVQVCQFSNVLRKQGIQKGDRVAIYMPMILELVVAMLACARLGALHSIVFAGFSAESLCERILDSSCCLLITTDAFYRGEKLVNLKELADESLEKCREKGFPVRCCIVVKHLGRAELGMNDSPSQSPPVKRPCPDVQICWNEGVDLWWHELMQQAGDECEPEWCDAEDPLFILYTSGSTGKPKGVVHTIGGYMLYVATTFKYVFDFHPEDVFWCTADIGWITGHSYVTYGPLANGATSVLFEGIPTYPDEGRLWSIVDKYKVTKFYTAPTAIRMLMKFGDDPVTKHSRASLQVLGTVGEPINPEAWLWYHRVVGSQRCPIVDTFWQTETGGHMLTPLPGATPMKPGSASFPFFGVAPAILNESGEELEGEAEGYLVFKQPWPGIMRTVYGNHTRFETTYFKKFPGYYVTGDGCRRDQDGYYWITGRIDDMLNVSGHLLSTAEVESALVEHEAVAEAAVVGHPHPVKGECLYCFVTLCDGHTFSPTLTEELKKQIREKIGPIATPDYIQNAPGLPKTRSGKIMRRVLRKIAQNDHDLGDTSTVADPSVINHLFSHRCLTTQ
T5 sequence (Q64505 whole entry): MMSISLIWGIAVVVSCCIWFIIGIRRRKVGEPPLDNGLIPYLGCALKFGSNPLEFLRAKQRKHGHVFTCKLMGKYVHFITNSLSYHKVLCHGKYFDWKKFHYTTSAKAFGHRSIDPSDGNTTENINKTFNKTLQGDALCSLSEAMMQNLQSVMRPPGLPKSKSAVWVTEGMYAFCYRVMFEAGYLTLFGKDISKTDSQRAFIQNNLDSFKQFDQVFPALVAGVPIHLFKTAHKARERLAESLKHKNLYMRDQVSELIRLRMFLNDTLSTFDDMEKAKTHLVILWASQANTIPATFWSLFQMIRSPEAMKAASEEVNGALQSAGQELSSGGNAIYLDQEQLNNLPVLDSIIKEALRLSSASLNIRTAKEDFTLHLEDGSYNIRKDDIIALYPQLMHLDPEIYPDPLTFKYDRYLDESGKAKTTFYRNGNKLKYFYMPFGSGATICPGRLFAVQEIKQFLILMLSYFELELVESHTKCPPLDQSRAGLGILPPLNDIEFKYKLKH
T3 sequence (Q64505 whole entry): as above
T2 sequence (P19096 whole entry): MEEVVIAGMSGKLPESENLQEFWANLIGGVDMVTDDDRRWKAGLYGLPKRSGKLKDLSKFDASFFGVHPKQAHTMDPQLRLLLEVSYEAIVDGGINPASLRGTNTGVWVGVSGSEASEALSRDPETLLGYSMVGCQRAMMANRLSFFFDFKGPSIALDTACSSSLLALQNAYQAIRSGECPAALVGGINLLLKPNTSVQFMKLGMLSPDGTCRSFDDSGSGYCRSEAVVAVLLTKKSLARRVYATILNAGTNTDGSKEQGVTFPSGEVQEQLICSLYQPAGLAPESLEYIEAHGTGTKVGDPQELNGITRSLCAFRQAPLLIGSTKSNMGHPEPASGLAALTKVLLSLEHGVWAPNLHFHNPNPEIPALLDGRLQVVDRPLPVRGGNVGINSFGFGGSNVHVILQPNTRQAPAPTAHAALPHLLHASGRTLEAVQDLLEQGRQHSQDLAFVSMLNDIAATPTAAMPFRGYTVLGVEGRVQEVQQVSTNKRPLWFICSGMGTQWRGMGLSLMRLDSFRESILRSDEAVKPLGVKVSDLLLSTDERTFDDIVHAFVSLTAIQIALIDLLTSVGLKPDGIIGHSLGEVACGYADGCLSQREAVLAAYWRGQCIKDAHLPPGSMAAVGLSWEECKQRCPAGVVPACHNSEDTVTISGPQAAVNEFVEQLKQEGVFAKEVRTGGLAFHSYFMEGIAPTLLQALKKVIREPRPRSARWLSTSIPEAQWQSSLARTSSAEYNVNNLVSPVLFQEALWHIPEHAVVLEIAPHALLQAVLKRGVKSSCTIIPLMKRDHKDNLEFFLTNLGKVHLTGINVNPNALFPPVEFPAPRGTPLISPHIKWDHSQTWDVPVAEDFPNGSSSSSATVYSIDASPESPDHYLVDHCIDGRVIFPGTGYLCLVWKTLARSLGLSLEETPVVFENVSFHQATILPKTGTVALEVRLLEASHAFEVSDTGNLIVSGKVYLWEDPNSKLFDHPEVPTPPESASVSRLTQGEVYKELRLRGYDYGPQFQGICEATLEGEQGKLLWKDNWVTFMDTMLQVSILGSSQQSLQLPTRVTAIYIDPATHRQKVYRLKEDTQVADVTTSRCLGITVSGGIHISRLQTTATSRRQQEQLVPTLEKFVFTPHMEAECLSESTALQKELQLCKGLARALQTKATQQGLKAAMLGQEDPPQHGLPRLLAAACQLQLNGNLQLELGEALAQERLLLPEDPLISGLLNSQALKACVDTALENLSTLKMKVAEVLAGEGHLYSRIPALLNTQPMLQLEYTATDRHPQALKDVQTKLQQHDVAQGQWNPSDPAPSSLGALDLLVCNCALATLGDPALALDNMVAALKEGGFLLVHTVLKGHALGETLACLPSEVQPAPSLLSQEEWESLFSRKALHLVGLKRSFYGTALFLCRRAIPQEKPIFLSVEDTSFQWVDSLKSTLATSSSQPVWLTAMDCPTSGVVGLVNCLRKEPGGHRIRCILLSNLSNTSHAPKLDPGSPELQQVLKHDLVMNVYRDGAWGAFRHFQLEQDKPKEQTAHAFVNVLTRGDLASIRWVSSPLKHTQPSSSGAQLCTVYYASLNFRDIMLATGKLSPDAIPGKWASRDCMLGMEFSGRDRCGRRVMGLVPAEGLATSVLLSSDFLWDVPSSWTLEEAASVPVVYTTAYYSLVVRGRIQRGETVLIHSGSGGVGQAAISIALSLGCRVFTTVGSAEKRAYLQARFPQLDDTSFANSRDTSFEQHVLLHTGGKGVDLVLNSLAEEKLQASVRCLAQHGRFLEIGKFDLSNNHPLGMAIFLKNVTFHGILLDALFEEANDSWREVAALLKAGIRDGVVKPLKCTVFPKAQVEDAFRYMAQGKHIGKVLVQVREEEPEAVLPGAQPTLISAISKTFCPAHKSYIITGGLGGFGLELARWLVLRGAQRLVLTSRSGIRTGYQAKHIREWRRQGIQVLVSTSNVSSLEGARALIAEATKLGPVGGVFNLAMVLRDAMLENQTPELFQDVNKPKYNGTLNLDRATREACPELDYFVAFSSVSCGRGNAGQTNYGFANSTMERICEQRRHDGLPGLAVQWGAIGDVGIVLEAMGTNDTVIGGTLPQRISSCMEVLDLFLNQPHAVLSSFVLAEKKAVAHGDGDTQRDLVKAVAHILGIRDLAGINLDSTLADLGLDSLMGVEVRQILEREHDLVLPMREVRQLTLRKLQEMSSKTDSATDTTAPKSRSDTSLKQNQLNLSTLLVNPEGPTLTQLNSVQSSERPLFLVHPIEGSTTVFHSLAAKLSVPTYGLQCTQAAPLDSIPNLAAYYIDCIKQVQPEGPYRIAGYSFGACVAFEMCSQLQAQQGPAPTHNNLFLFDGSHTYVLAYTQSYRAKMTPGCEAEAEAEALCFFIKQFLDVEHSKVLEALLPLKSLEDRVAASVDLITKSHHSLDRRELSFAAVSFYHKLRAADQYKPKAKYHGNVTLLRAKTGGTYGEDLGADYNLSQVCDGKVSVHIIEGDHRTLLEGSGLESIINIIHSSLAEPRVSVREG

For `[BH3-][N+](C)(C)CCCCCCCCCCCCCCCCCC` [I, N-n-Octadecyl-N,N-Dimethylamine Borane], the “reduction of acetyl CoA synthetase activity” value (acetyl CoA synthetase [1]) was “more than 50%”, the “reduction in phosphatidate phosphohydrolase activity” value [2] was 67% and the “effect on sn-glycerol-3 phosphate acyl transferase activity” value [3] was “unaffected”. The “effect on fatty acid synthetase activity” value (fatty acid synthetase) was “unaffected”, the “Serum Triglyceride Day 9 (X ± SD)” value (male CF1 mice [4]) was 80 ± 9% of Control and the “effect on cholesterol 7α hydrolase activity” value (Cholesterol 7α hydrolase) was “unaffected”. For the same compound, the “reduction of cholesterol synthesis (HMG CoA reductase)” value (HMG CoA reductase [5]) was 38%, the “reduction of phosphatidate phosphohydrolase activity” value [6] was 40% and the LD50 (Toxicity (LD50)) was greater than 500 mg/kg. The “reduction of acetyl CoA synthetase” value (acetyl CoA synthetase [7]) was 32%, the “reduction of HMG CoA reductase activity” value (HMG CoA reductase [8]) was 34% and the “reduction of cholesterol 7α hydroxylase activity” value [9] was 35%. The “effect on Actyl CoA carboxylase activity” value (Actyl CoA carboxylase) was “unaffected”, the “reduction of serum cholesterol levels” value (male CF1 mice [10]; [11]) was 41% and the “reduction of serum triglyceride levels” value (male CF1 mice [10]; [11]) was 59%. For the same compound, the response vs control in vivo at 20 mg/kg (male CF1 mice [10]; 216 h, day 9, read-out: Serum Cholesterol Day 9) was 82%, the response vs control in vivo at 20 mg/kg (male CF1 mice [10]; 384 h, day 16, read-out: Serum Cholesterol Day 16) was 79% and the response vs control in vivo at 20 mg/kg (male CF1 mice [10]; 384 h, day 16, read-out: Serum Triglyceride Day 16) was 77%. The “Serum Cholesterol Day 9 (X ± SD)” value (male CF1 mice [10]; 2 mg/kg/day i.p.) was 71 ± 6% of Control, the “Serum Cholesterol Day 16 (X ± SD)” value (male CF1 mice [10]; 2 mg/kg/day i.p.) was 61 ± 7% of Control and the “Serum Triglyceride Day 16 (X ± SD)” value (male CF1 mice [10]; 2 mg/kg/day i.p.) was 45 ± 4% of Control. The “Serum Cholesterol Day 9 (X ± SD)” value (male CF1 mice [10]; 4 mg/kg/day i.p.) was 69 ± 5% of Control, the “Serum Cholesterol Day 16 (X ± SD)” value (male CF1 mice [10]; 4 mg/kg/day i.p.) was 59 ± 5% of Control and the “Serum Triglyceride Day 16 (X ± SD)” value (male CF1 mice [10]; 4 mg/kg/day i.p.) was 49 ± 5% of Control. The “Serum Cholesterol Day 9 (X ± SD)” value (male CF1 mice [10]; 8 mg/kg/day i.p.) was 79 ± 7% of Control, the “Serum Cholesterol Day 16 (X ± SD)” value (male CF1 mice [10]; 8 mg/kg/day i.p.) was 59 ± 4% of Control and the “Serum Triglyceride Day 9 (X ± SD)” value (male CF1 mice [10]; 8 mg/kg/day i.p.) was 87 ± 7% of Control. The “Serum Triglyceride Day 16 (X ± SD)” value (male CF1 mice [10]; 8 mg/kg/day i.p.) was 41 ± 3% of Control, the “Serum Cholesterol Day 9 (X ± SD)” value (male CF1 mice [10]; 12 mg/kg/day i.p.) was 62 ± 6% of Control and the “Serum Cholesterol Day 16 (X ± SD)” value (male CF1 mice [10]; 12 mg/kg/day i.p.) was 61 ± 5% of Control. The “Serum Triglyceride Day 9 (X ± SD)” value (male CF1 mice [10]; 12 mg/kg/day i.p.) was 58 ± 6% of Control, the “Serum Triglyceride Day 16 (X ± SD)” value (male CF1 mice [10]; 12 mg/kg/day i.p.) was 56 ± 7% of Control and the “Serum Cholesterol Day 9 (X ± SD)” value (male CF1 mice [10]; 16 mg/kg/day i.p.) was 60 ± 5% of Control. For the same compound, the “Serum Cholesterol Day 16 (X ± SD)” value (male CF1 mice [10]; 16 mg/kg/day i.p.) was 61 ± 6% of Control, the “Serum Triglyceride Day 9 (X ± SD)” value (male CF1 mice [10]; 16 mg/kg/day i.p.) was 73 ± 8% of Control and the “Serum Triglyceride Day 16 (X ± SD)” value (male CF1 mice [10]; 16 mg/kg/day i.p.) was 63 ± 8% of Control. The “Serum Cholesterol Day 9 (X ± SD)” value (male CF1 mice [10]; 20 mg/kg/day i.p.) was 82 ± 7% of Control, the “Serum Cholesterol Day 16 (X ± SD)” value (male CF1 mice [10]; 20 mg/kg/day i.p.) was 79 ± 7% of Control and the “Serum Triglyceride Day 16 (X ± SD)” value (male CF1 mice [10]; 20 mg/kg/day i.p.) was 77 ± 7% of Control. The “Serum Cholesterol Day 9 (X ± SD)” value (male CF1 mice [10]; 40 mg/kg/day i.p.) was 83 ± 6% of Control, the “Serum Cholesterol Day 16 (X ± SD)” value (male CF1 mice [10]; 40 mg/kg/day i.p.) was 79 ± 8% of Control and the “Serum Triglyceride Day 16 (X ± SD)” value (male CF1 mice [10]; 40 mg/kg/day i.p.) was 93 ± 6% of Control. The “Serum Cholesterol Day 9 (X ± SD)” value (male CF1 mice [10]; 60 mg/kg/day i.p.) was 81 ± 6% of Control, the “Serum Cholesterol Day 16 (X ± SD)” value (male CF1 mice [10]; 60 mg/kg/day i.p.) was 82 ± 6% of Control and the “Serum Triglyceride Day 16 (X ± SD)” value (male CF1 mice [10]; 60 mg/kg/day i.p.) was 113 ± 4% of Control. The optimum dosage (male CF1 mice [10]; in mice) was “about 8 mg./kg./day”.
